The values that follow come from US11753407B2, “Compounds for treating spinal muscular atrophy” (PTC Therapeutics, Inc., priority 2012, dated 2023).

The subject of data set [1] is SMN2 minigene mRNA (SMN2-A minigene) in HEK293H cells. The data set can be described thus: SMN2 minigene mRNA splicing RT-qPCR assay in cultured cells. It is filed as cell-based, human. The conditions noted are these: Homo sapiens, HEK293-H; concentration increasing full length SMN2 mRNA 1.5-fold relative to vehicle-treated cells; HEK293H cells with SMN2-A minigene, 24 hours, 7-point concentration data; read-out: EC1.5x for production of full length SMN2 mRNA. The method, boiled down:
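Read-out: minigene-specific full-length (exon 7-included) SMN2 mRNA by one-step multiplex RT-qPCR, normalized to GAPDH and divided by vehicle-treated level. Stable SMN2-A minigene HEK293H cells, 24 h compound exposure, 7 concentrations in duplicate. EC1.5× = concentration raising FL mRNA 1.5-fold.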

The subject of data set [2] is Smn protein in SMA patient fibroblast cells (GM03813). The data set can be described thus: Smn protein assay in cultured cells (SMN HTRF). It is filed as cell-based, human. The conditions noted are these: SMA patient fibroblast cells, 48 hours; for maximum fold (Fold) increase of Smn protein: 7-point concentration data, fold relative to vehicle control; for EC1.5x for Smn protein expression: 7-point concentration curve, SMN HTRF, concentration producing 1.5 times Smn protein vs DMSO vehicle control. The method in brief: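 Read-out: HTRF 665/620 nm ratio, blank-subtracted as ΔF, then expressed as fold over DMSO vehicle. Fibroblasts from SMA patients were exposed to compounds for 48 h (7 points, 3.16-fold steps, triplicates). Values are EC1.5× and maximum fold Smn increase.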

Where only a bound is given, the exact number is not on record here.

In turn, `CNCC1CCN(c2ccc3nc(-c4ccc(OC)c(F)c4)cc(=O)n3c2)CC1` [Compound 223, 2-(3-fluoro-4-methoxyphenyl)-7-{4-[(methylamino)methyl]piperidin-1-yl}-4H-pyrido[1,2-a]pyrimidin-4-one] showed a melting point of 163 to 170 °C. The EC (1.5-fold increase) in data set [1] was in the range of 0.3 to 1 µM. The “maximum fold (Fold) increase of Smn protein” value (“maximum fold (Fold) increase” for short) in data set [2] was “*** (a fold increase between >1.35 and ≤1.5 is indicated by three stars (***))”.
`COc1ccc(-c2cc(=O)n3cc(N4CC[C@H](N)C4)ccc3n2)cc1F` [Compound 224, 7-[(3S)-3-aminopyrrolidin-1-yl]-2-(3-fluoro-4-methoxyphenyl)-4H-pyrido[1,2-a]pyrimidin-4-one] came in with a melting point of 193 to 198 °C. In data set [1], the EC (1.5-fold increase) fell in the range of 0.3 to 1 µM. In data set [2], the “EC1.5x for Smn protein expression” value was “*** (an EC1.5× between >0.3 μM and ≤1 μM is indicated by three stars (***))”; the “maximum fold (Fold) increase” value was “**** (a fold increase between >1.5 and ≤1.65 is indicated by four stars (****))”.
Consider `COc1ccc(-c2cc(=O)n3cc(N[C@@H]4CCN(C)C4)ccc3n2)cc1F` [Compound 225, 2-(3-fluoro-4-methoxyphenyl)-7-{[(3R)-1-methylpyrrolidin-3-yl]amino}-4H-pyrido[1,2-a]pyrimidin-4-one], for which the melting point is 197 to 202 °C. Also, in data set [1], the EC (1.5-fold increase) fell in the range of 1 to 3 µM. Also, the “maximum fold (Fold) increase” value in data set [2] was “* (A maximum fold increase of ≤1.2 is indicated by one star (*))”.
In the case of `COc1ccc(-c2cc(=O)n3cc(N4CCC(CN(C)C)CC4)ccc3n2)cc1F` [Compound 226, 7-{4-[(dimethylamino)methyl]piperidin-1-yl}-2-(3-fluoro-4-methoxyphenyl)-4H-pyrido[1,2-a]pyrimidin-4-one], the melting point was in the range of 178 to 185 °C. Also, in data set [1], the EC (1.5-fold increase) fell in the range of 0.3 to 1 µM. Also, the “maximum fold (Fold) increase” value in data set [2] is “* (A maximum fold increase of ≤1.2 is indicated by one star (*))”.
Compound `COc1cccc(-c2cc(=O)n3cc(N4CCNCC4)ccc3n2)n1` [Compound 227, 2-(6-methoxypyridin-2-yl)-7-(piperazin-1-yl)-4H-pyrido[1,2-a]pyrimidin-4-one] had a melting point of 214 to 218 °C. Further, the EC (1.5-fold increase) in data set [1] fell in the range of 1 to 3 µM. In data set [2], the “maximum fold (Fold) increase” value is “*** (a fold increase between >1.35 and ≤1.5 is indicated by three stars (***))”.
On to `O=c1cc(-c2cccnc2)nc2ccc(N3CCNCC3)cn12` [Compound 228, 7-(piperazin-1-yl)-2-(pyridin-3-yl)-4H-pyrido[1,2-a]pyrimidin-4-one], for which the melting point was 175 to 178 °C. Besides, in data set [1], the EC (1.5-fold increase) lay in the range of 1 to 3 µM. Besides, the “maximum fold (Fold) increase” value in data set [2] was “** (a fold increase between >1.2 and ≤1.35 is indicated by two stars (**))”.
Regarding `COc1cncc(-c2cc(=O)n3cc(N4CCNCC4)ccc3n2)c1` [Compound 229, 2-(5-methoxypyridin-3-yl)-7-(piperazin-1-yl)-4H-pyrido[1,2-a]pyrimidin-4-one], the melting point was 192 to 195 °C. Moreover, the EC (1.5-fold increase) in data set [1] lay in the range of 0.3 to 1 µM. In data set [2], the “EC1.5x for Smn protein expression” value was “* (An EC1.5× for Smn protein expression between >3 μM and ≤10 μM is indicated by one star (*))”; the “maximum fold (Fold) increase” value is “*** (a fold increase between >1.35 and ≤1.5 is indicated by three stars (***))”.
`C[C@H]1CN(c2ccc3nc(-c4cc(F)cc(C#N)c4)cc(=O)n3c2)CCN1` [Compound 230, 3-fluoro-5-{7-[(3S)-3-methylpiperazin-1-yl]-4-oxo-4H-pyrido[1,2-a]pyrimidin-2-yl}benzonitrile] displayed a melting point of 185 to 188 °C. The EC (1.5-fold increase) in data set [1] lay within 0.3 to 1 µM. In data set [2], the “EC1.5x for Smn protein expression” value was “** (an EC1.5× between >1 μM and ≤3 μM is indicated by two stars (**))”; the “maximum fold (Fold) increase” value is “**** (a fold increase between >1.5 and ≤1.65 is indicated by four stars (****))”.
Compound `N#Cc1cc(F)cc(-c2cc(=O)n3cc(N4CCNCC4)ccc3n2)c1` [Compound 231, 3-fluoro-5-[4-oxo-7-(piperazin-1-yl)-4H-pyrido[1,2-a]pyrimidin-2-yl]benzonitrile] came in with a melting point of 238 to 244 °C. In data set [1], the EC (1.5-fold increase) lay in the range of 0.3 to 1 µM. Besides, in data set [2], the “EC1.5x for Smn protein expression” value was “** (an EC1.5× between >1 μM and ≤3 μM is indicated by two stars (**))”; the “maximum fold (Fold) increase” value is “**** (a fold increase between >1.5 and ≤1.65 is indicated by four stars (****))”.
For the compound `COc1ccc(-c2cc(=O)n3cc(N4C[C@H](O)[C@@H](N5CCCC5)C4)ccc3n2)cc1F` [Compound 232, 2-(3-fluoro-4-methoxyphenyl)-7-[(3′S,4′S)-4′-hydroxy-1,3′-bipyrrolidin-1′-yl]-4H-pyrido[1,2-a]pyrimidin-4-one], the melting point fell in the range of 226 to 232 °C. In data set [1], the EC (1.5-fold increase) lay within 1 to 3 µM. Further, the “maximum fold (Fold) increase” value in data set [2] is reported as “* (A maximum fold increase of ≤1.2 is indicated by one star (*))”.
`COc1ccc(-c2cc(=O)n3cc(N(C)[C@@H]4CCNC4)ccc3n2)cc1F` [Compound 233, 2-(3-fluoro-4-methoxyphenyl)-7-{methyl[(3R)-pyrrolidin-3-yl]amino}-4H-pyrido[1,2-a]pyrimidin-4-one] gave a melting point of 143 to 147 °C. Moreover, in data set [1], the EC (1.5-fold increase) was in the range of 0.3 to 1 µM. Further, in data set [2], the “maximum fold (Fold) increase” value is on record as “* (A maximum fold increase of ≤1.2 is indicated by one star (*))”.
For `Cc1nc2ccc(-c3cc(=O)n4cc(N5CCN(C)[C@@H](C)C5)ccc4n3)cc2o1` [Compound 234, 7-[(3S)-3,4-dimethylpiperazin-1-yl]-2-(2-methyl-1,3-benzoxazol-6-yl)-4H-pyrido[1,2-a]pyrimidin-4-one], the melting point is 205 to 209 °C. Moreover, the EC (1.5-fold increase) in data set [1] was below 0.1 µM. In data set [2], the “EC1.5x for Smn protein expression” value was “**** (an EC1.5x≤0.3 μM is indicated by four stars (****))” and the “maximum fold (Fold) increase” value is on record as “***** (a fold increase >1.65 is indicated by five stars (*****))”.
With `COc1ccc(-c2cc(=O)n3cc(O[C@H]4CCNC4)ccc3n2)cc1OC` [Compound 236, 2-(3,4-dimethoxyphenyl)-7-[(3S)-pyrrolidin-3-yloxy]-4H-pyrido[1,2-a]pyrimidin-4-one], the melting point is 164 to 166 °C. The EC (1.5-fold increase) in data set [1] lay within 1 to 3 µM. Further, in data set [2], the “EC1.5x for Smn protein expression” value was “* (An EC1.5× for Smn protein expression between >3 μM and ≤10 μM is indicated by one star (*))”; the “maximum fold (Fold) increase” value was “*** (a fold increase between >1.35 and ≤1.5 is indicated by three stars (***))”.
In the case of `COc1ccc(-c2cc(=O)n3cc(N4CCCNCC4)cc(C)c3n2)cc1OC` [Compound 238, 7-(1,4-diazepan-1-yl)-2-(3,4-dimethoxyphenyl)-9-methyl-4H-pyrido[1,2-a]pyrimidin-4-one], the melting point was 160 to 177 °C. Moreover, in data set [1], the EC (1.5-fold increase) is 0.3 to 1 µM. Also, the “maximum fold (Fold) increase” value in data set [2] was “** (a fold increase between >1.2 and ≤1.35 is indicated by two stars (**))”.
The compound `Cc1nc2ccc(-c3cc(=O)n4cc(N5CCC(N(C)C)CC5)ccc4n3)cc2o1` [Compound 240, 7-[4-(dimethylamino)piperidin-1-yl]-2-(2-methyl-1,3-benzoxazol-6-yl)-4H-pyrido[1,2-a]pyrimidin-4-one] had a melting point of 206 to 210 °C. In data set [1], the EC (1.5-fold increase) is below 0.1 µM. In data set [2], the “EC1.5x for Smn protein expression” value was “**** (an EC1.5x≤0.3 μM is indicated by four stars (****))”; the “maximum fold (Fold) increase” value is “**** (a fold increase between >1.5 and ≤1.65 is indicated by four stars (****))”.
The compound `Cc1nc2ccc(-c3cc(=O)n4cc(N5CC[C@H](N(C)C)C5)ccc4n3)cc2o1` [Compound 241, 7-[(3S)-3-(dimethylamino)pyrrolidin-1-yl]-2-(2-methyl-1,3-benzoxazol-6-yl)-4H-pyrido[1,2-a]pyrimidin-4-one] yielded a melting point of 189 to 193 °C. The EC (1.5-fold increase) in data set [1] lay within 0.1 to 0.3 µM. Moreover, in data set [2], the “EC1.5x for Smn protein expression” value is “**** (an EC1.5x≤0.3 μM is indicated by four stars (****))” and the “maximum fold (Fold) increase” value is on record as “***** (a fold increase >1.65 is indicated by five stars (*****))”.
The compound `Cc1nc2ccc(-c3cc(=O)n4cc(N5CCN(C)[C@H](C)C5)ccc4n3)cc2o1` [Compound 244, 7-[(3R)-3,4-dimethylpiperazin-1-yl]-2-(2-methyl-1,3-benzoxazol-6-yl)-4H-pyrido[1,2-a]pyrimidin-4-one] gave a melting point of 181 to 187 °C. The EC (1.5-fold increase) in data set [1] was below 0.1 µM. Also, in data set [2], the “EC1.5x for Smn protein expression” value is reported as “**** (an EC1.5x≤0.3 μM is indicated by four stars (****))”; the “maximum fold (Fold) increase” value was “**** (a fold increase between >1.5 and ≤1.65 is indicated by four stars (****))”.
For the compound `COc1ccc(-c2cc(=O)n3cc(N4C[C@H]5CCN(C)[C@H]5C4)ccc3n2)cc1F` [Compound 246, 2-(3-fluoro-4-methoxyphenyl)-7-[(3aR,6aR)-1-methylhexahydropyrrolo[3,4-b]pyrrol-5(1H)-yl]-4H-pyrido[1,2-a]pyrimidin-4-one], the melting point fell in the range of 205 to 209 °C. In data set [1], the EC (1.5-fold increase) was in the range of 1 to 3 µM. In addition, in data set [2], the “maximum fold (Fold) increase” value was “* (A maximum fold increase of ≤1.2 is indicated by one star (*))”.
